Experimental data reported in patent publication US20040197855A1, “Test system for determining gene toxicities” (priority 2001, published 2004).

What was measured:
Salmonella typhimurium = conditions: cited from earlier work
mice = conditions: cited from earlier work
rats = conditions: cited from earlier work
[1] = tested on: yeast and mammalian cells; conditions: cited from earlier work
GalER-VP = experiment: Estradiol-inducible expression of I-SceI meganuclease in KMV cells; type: cell-based, human; conditions: KMV clones with genomic pGC-Sce; Gal4 recognition sequence promoter
From the text: In order to achieve controlled meganuclease expression because of the antiproliferative effect of DSBs, the extremely reliable, β-estradiol-inducible expression system was selected according to a preferred embodiment of the invention (Braselmann, S. et al. (1993) Proc. Natl. Acad. Sci. USA 90: 1657-1661; Dudenhöffer, C. (1999) Oncogene 18: 5773-5784). The expression system couples the so-called Gal4ER transcription factor to an expression cassette controlled by a Gal4ER-responsive promoter (compare FIG. 2). Gal4ER represents a fusion protein of the DNA binding domain of the Gal4 transcription factor with the strong, viral VP16 transactivator domain and a β-estradiol binding domain of the human β-estradiol receptor, making Gal4ER functionally inducible as transcription factor by β-estradiol. This principle of conditional expression permits an inducible increase in protein expression by at least one order of magnitude. […] Inducible I-SceI expression was detected in Western blot experiments. […]

SMILES | result in the Ames assay (Salmonella typhimurium) | tumours in mice (mice) | tumours in rats (rats) | recombination events leading to deletions [1] | lowest concentration for complete promoter induction (GalER-VP)
Cc1ccccc1N [o-toluidine] | negative | cause tumours | cause tumours | triggered | –
C[C@]12CC[C@@H]3c4ccc(O)cc4CC[C@H]3[C@@H]1CC[C@@H]2O [β-estradiol] | – | – | – | – | 50 nM
